The source of these data is patent publication US6013621A, “Method of treating psychosis and/or hyperactivity” (The Rockfeller University, priority 1997, dated 2000).

In series [1] the test system is thr^34 -phosphorylated DARPP-32. The experiment in a line: phospho-DARPP-32 immunoblot in nucleus accumbens slices. In kind it is cell-based, mouse. As to the method:
(§1) Preparation and incubation of striatal slices. Male C57BL/6 mice (5-8 weeks old) were sacrificed by decapitation. The brains of the decapitated mice were rapidly removed and placed in ice-cold, oxygenated Krebs-HCO3 -buffer (124 mM NaCl, 4 mM KCl, 26 mM NaHCO3, 1.5 mM CaCl2, 1.25 mM KH2 PO4, 1.5 mM MgSO4 and 10 mM D-glucose, pH 7.4). Coronal slices (350 μm) were prepared using a vibratome. Striatum and nucleus accumbens were dissected from the slices in ice-cold Krebs-HCO3 - buffer. Each slice was placed in a polypropylene incubation tube with 2 ml of fresh Krebs-HCO3 - buffer containing adenosine deaminase (10 μg/ml). The slices were preincubated at 30° C. under constant oxygenation with 95 % O2 /5 % CO2 for 60 minutes. The buffer was replaced with fresh Krebs-HCO3 -buffer after 30 minutes of preincubation. In some experiments, slices were incubated in Ca^2+ -free/EGTA medium (124 mM NaCl, 4 mM KCl, 26 mM NaHCO3, 1.25 mM KH2 PO4, 3.0 mM MgSO4, 10 mM D-glucose and I mM EGTA, pH 7.4) for 20 minutes after 60 minutes of preincubation in Krebs-HCO3 - buffer. Slices were treated with drugs as specified in each experiment.
(§2) Immunoblotting. Frozen tissue samples were sonicated in boiling 1% SDS and boiled for an additional 10 minutes. Small aliquots of the homogenate were retained for protein determination by the BCA protein assay method (Pierce) using bovine serum albumin as a standard. […] The membranes were immunoblotted using a monoclonal antibody (mAb-23; 1:750 dilution) [Snyder et al., (1992)], which is a phosphorylation state-specific antibody raised against a DARPP-32 peptide containing phospho-thr^34, the site phosphorylated by cAMP-dependent protein kinase. A monoclonal antibody (C24-5a; 1:7500 dilution) generated against DARPP-32 (Hemmings and Greengard, 1986), which is not phosphorylation state-specific, was used to estimate the total amount of DARPP-32 in samples.
(§3) Data were analyzed by Student's t -test with significance defined as p<0.05.
(A western blot detects proteins with antibodies after separation by electrophoresis.)

The test system is the same in series [2]. The experiment in a line: phospho-DARPP-32 immunoblot in mouse neostriatal slices. The note with it: for increase in the level of phosphorylated DARPP-32: vs untreated slices; for increase in the level of phosphorylated DARPP-32 over the already high basal levels: Ca^2+ -free/EGTA medium. In kind it is cell-based. As to the method:
as §1, §2, §3

For series [3] the following is noted: Begley et al., 1990; cited from earlier work.
The nature of series [4]: prepulse inhibition (PPI) of the startle reflex in mice. In kind it is in vivo. An excerpt:
Chambers that are used to assess startle are housed in a sound-attenuated room with a 60 dB(A) ambient noise level. Such chambers consist of a Plexiglass cylinder 8.2 cm in diameter resting on a 12.5×25.5 cm Plexiglass frame within a ventilated enclosure. Acoustic noise bursts are presented via a speaker mounted 24 cm above the animal. A piezoelectric accelerometer mounted below the Plexiglass frame detects and transduces motion within the cylinder. The delivery of acoustic stimuli is controlled by a microcomputer. Startle amplitude is defined as the average of 100 readings. Background noise and all acoustic stimuli are delivered through a speaker (frequency response between 0.5 and 16 Khz) in a chamber. The test session consists of giving: (i) a startle stimulus alone (a 118 dB [A] 40 ms broad band burst); or (ii) no stimulation; or (iii) a startle stimulus preceded 100 ms earlier by a prepulse (a 70 dB [A] 20 ms broad band burst). The amount of PPI is expressed as the percentage decrease in the startle response caused by the presentation of the prepulse. The amount of PPI is calculated using the following equation: [(startle amplitude caused by pulse alone minus startle amplitude caused by pulse preceded by prepulse)/(startle amplitude caused by pulse alone)]×100.

For another series, the system named is DARPP-32 phosphorylation. In words: DARPP-32 phosphorylation in rat neostriatal slices (FIG. 9). In kind it is cell-based. The conditions noted are these: forskolin 10 μM plus FK506 at various concentrations. On the procedure: FIG. 9. FK506 increases the level of DARPP-32 phosphorylation in neostriatal slices. Rat neostriatal slices were incubated in the absence (control) or presence of forskolin (10 μM) alone; or forskolin and FK506 using the various concentrations shown.

The conditions of series [5]: treatment with a D1 antagonist, Karlsson et al., 1995; cited from earlier work.

Several values for one entry are separate records, joined by “and”; a condition that tells them apart may be missing. Equal values may be shown once. Read-outs that look alike come from different tables or passages of the source.

For `CCN1CCC[C@H]1CNC(=O)c1c(O)c(Cl)cc(Cl)c1OC` [raclopride], in series [1] (raclopride 1 μM), the “effect on the quinpirole-induced decrease in SKF82526-stimulated DARPP-32 phosphorylation” value is listed as “abolished” and the “effect on the quinpirole-induced decrease in basal DARPP-32 phosphorylation” value was “abolished”. Further, in series [1] (raclopride alone 1 μM), the “effect on the basal level of phosphorylated DARPP-32” value (“effect on the basal level” below) is on record as “small increase”. For the same compound, the “effect on the basal level” value in series [2] is reported as “slightly increased”. Also, the “effect on the ability of quinpirole to decrease the SKF82526-stimulated level of phosphorylated DARPP-32” value in series [2] (raclopride 1 μM) was “dramatically reduced”. Also, in series [2] (raclopride 1 μM, quinpirole (100 μM)), the “effect on the ability of quinpirole to decrease the basal level of phosphorylated DARPP-32” value is reported as “blocked”.

`C[C@]12N[C@H](Cc3ccccc31)c1ccccc12` [MK801]: in series [2], the “effect on the D2 receptor (quinpirole) decrease of DARPP-32 phosphorylation” value is “not blocked”; the “effect on the basal level” value is listed as “increased”; the “level of phospho-DARPP-32, MK801 (+)” value amounted to 0.247 ± 0.044. Moreover, the “effect on the NMDA antagonism of the SKF82526-induced increase of phosphorylated DARPP-32” value in series [2] (MK801 100 μM, NMDA 100 μM) is recorded as “abolished”.

With `NCCc1ccc(O)c(O)c1` [dopamine], the “increase in the level of phosphorylated DARPP-32” value in series [2] (dopamine 100 μM plus nomifensine 10 μM) is listed as 6.64±1.36 fold.

Take `C/C=C(/C)C(=O)O[C@H]1C(C)=C2[C@H]([C@@H]1OC(=O)CCCCCCC)[C@@](C)(OC(C)=O)C[C@H](OC(=O)CCC)[C@@]1(O)[C@H]2OC(=O)[C@@]1(C)O` [thapsigargin]: in series [2] (thapsigargin 5 μM added 5 min before SKF82526 1 μM for 5 minutes), the “reduction of the level of phosphorylated DARPP-32 seen with SKF82526” value stood at 46.9±7.7%.

Take `C=C[C@@]1(C)CC(=O)[C@]2(O)[C@@]3(C)[C@@H](O)CCC(C)(C)[C@@H]3[C@H](O)[C@H](OC(C)=O)[C@@]2(C)O1` [forskolin]: the “increase in the level of phosphorylated DARPP-32 over the already high basal levels” value in series [2] amounted to 2.04±0.22 fold. Moreover, the “increase in the level of phosphorylated DARPP-32 after 5 minutes” value in series [2] (forskolin 10 μM, 8-bromo-cAMP 1 mM) is on record as 20 fold.

Take `C=CC[C@@H]1/C=C(\C)C[C@H](C)C[C@H](OC)[C@H]2O[C@@](O)(C(=O)C(=O)N3CCCC[C@H]3C(=O)O[C@H](/C(C)=C/[C@@H]3CC[C@@H](O)[C@H](OC)C3)[C@H](C)[C@@H](O)CC1=O)[C@H](C)C[C@@H]2OC` [FK506]: the “crossing of the blood-brain barrier” value in series [3] is reported as “effectively crosses the blood-brain barrier”. The “effect on the reduction of PPI mediated by quinpirole” value in series [4] (D2 agonist and FK506 concurrently, FK506 intravenously 1 to 1000 nM) is given as “blocks the reduction of PPI mediated by quinpirole”. Besides, the “effect on the degree of PPI, FK506 alone” value in series [4] (FK506 alone) is “can increase the degree of PPI”. Besides, the “effect on the level of DARPP-32 phosphorylation” value with DARPP-32 phosphorylation was “increases DARPP-32 phosphorylation in a dose-dependent manner”.

In the case of `CN1CCc2cc(Cl)c(O)cc2[C@@H](c2ccccc2)C1` [SCH23390], the “effect on the SKF82526-induced DARPP-32 phosphorylation (D1 antagonist)” value in series [2] is “abolished”.

Consider `CN[C@H](CC(=O)O)C(=O)O` [NMDA], for which, in series [2], the “effect on the SKF82526-stimulated level of phosphorylated DARPP-32” value is “antagonized”. Moreover, in series [2] (discussion of Table 2 data), the “decrease in SKF 82526-induced phosphorylation of DARPP-32” value is 100%.

`CN1CCc2cc(Cl)c(O)cc2[C@H]2c3ccccc3CC[C@@H]21` [SCH39166]: the “effect on the symptoms of schizophrenia” value in series [5] is recorded as “does not improve but actually worsens the symptoms of schizophrenia”.

On to `CCCN1CCC[C@@H]2Cc3n[nH]cc3C[C@H]21` [quinpirole], for which the “effect on the basal level” value in series [2] is listed as “decreased”.

Take `Oc1ccc(C2CNCCc3c2cc(O)c(O)c3Cl)cc1` (centres unmarked) [SKF82526]: the “increase in the level of phosphorylated DARPP-32” value in series [1] (SKF82526 1 μM) was “about 7 fold”. Further, in series [2], the “level of phospho-DARPP-32, TTX (+)” value is reported as 5.492 ± 0.780; the “level of phospho-DARPP-32, TTX (-)” value is given as 3.282 ± 0.575; the “increase in the level of phosphorylated DARPP-32 over the already high basal levels” value is on record as 1.55±0.12 fold. Besides, the EC50 in series [2] (Mus musculus, dose-dependent increase, read-out: half-maximal effect on DARPP-32 phosphorylation) was approximately 100 nM. Moreover, the “increase in the level of phosphorylated DARPP-32” value in series [2] (SKF82526 1 μM alone) was 5.37±0.99 fold and 9.36±2.06 fold. For the same compound, the “level of phospho-DARPP-32, Cyclosporin A (-), 5 min” value in series [2] (Table 1A, SKF82526 1 μM for 5 min, normalized to control) turned out to be 7.14 ± 0.97. For the same compound, the “level of phospho-DARPP-32, Cyclosporin A (-), 30 min” value in series [2] (Table 1A, SKF82526 1 μM for 30 min, normalized to control) was 3.07 ± 0.66. Moreover, the “level of phospho-DARPP-32, Cyclosporin A (+), 5 min” value in series [2] (Table 1A, cyclosporin A 5 μM preincubation 60 min, SKF82526 1 μM for 5 min, normalized to control) stood at 31.6 ± 2.8. Further, the “level of phospho-DARPP-32, Cyclosporin A (+), 30 min” value in series [2] (Table 1A, cyclosporin A 5 μM preincubation 60 min, SKF82526 1 μM for 30 min, normalized to control) is 28.0 ± 3.1. Also, the “level of phospho-DARPP-32, Cyclosporin A (+)” value in series [2] (Table 1C, cyclosporin A 5 μM 60 min, quinpirole 1 μM 5 min preincubation, SKF82526 1 μM 5 min, normalized to control) is reported as 21.1 ± 2.3. In addition, the “level of phospho-DARPP-32, Cyclosporin A (-)” value in series [2] (Table 1C, quinpirole 1 μM 5 min preincubation, SKF82526 1 μM 5 min, normalized to control) amounted to 10.61 ± 2.28. Also, in series [2] (Table 2, MK801 100 μM from 0 min, NMDA 100 μM or quinpirole 1 μM at 10 min, SKF82526 1 μM at 15 min of 20 min, normalized to SKF82526 alone), the “level of phospho-DARPP-32, MK801 (+)” value was 1.115 ± 0.078. In series [2] (Table 2, NMDA 100 μM or quinpirole 1 μM at 10 min, SKF82526 1 μM at 15 min of 20 min, normalized to SKF82526 alone), the “level of phospho-DARPP-32, MK801 (-)” value worked out at 1.000.

In the case of `NC1=N[C@H](O)[C@H]2[C@H]3O[C@]4(O)O[C@@H]([C@@H](O)[C@@]2(N1)[C@@H]4O)[C@]3(O)CO` [TTX, tetrodotoxin], in series [2], the “effect on the SKF82526-stimulated level of phosphorylated DARPP-32” value is reported as “increased”; the “effect on the basal level” value is “increased”; the “effect on the effect of quinpirole on DARPP-32 phosphorylation” value is listed as “failed to reduce”; the “level of phospho-DARPP-32, TTX (+)” value came out at 1.000.
